{
  "source": "patent US12233081B2",
  "about": "“Hygromycin a compounds and methods of treating spirochete diseases” (priority 2018, dated 2025)",
  "key": {"[1]": {"tested_on": "gut microbiome", "assay": "gut microbiome 16S rRNA sequencing of stool of infected, treated mice", "settings": "subcutaneous 156 mg/kg every 12 hours for 5 days"}, "[2]": {"tested_on": "B. burgdorferi N40", "assay": "C3H mice infected with Borrelia burgdorferi, cell counts in skin tissue", "format": "in vivo", "settings": "156 mg/kg IP injection, 5 days of dosing", "method": "C3H mice (Charles River Laboratories) are used in classical Lyme disease infection model. Mice were rested for more than 1 day after delivery before infected with 10^5 B. burgdorferi N40 cells by subcutaneous injection. Infection was established for 3 weeks. 100 μl of saline, ceftriaxone or hygromycin A was administered by IP injection. Compounds of the invention can also be tested for efficacy as described herein.\nCeftriaxone (USP grade) was purchased from Sigma-Aldrich. Saline was purchased from Baxter Healthcare. Ceftriaxone powder was dissolved into saline to 31.2 mg/ml solution. Hygromycin A stock solution at 200 mg/ml was diluted into saline to make 50 mg/ml (250 mg/kg), 15 mg/ml (75 mg/kg), 14 mg/ml (70 mg/kg), 10 mg/ml (50 mg/kg) and 5 mg/ml (25 mg/kg) solutions.\nIn the B. burgdorferi mice infection model, skin is the tissue with highest bacterial burden. After sacrificing mice 2 days after 5 days of dosing, we took 100 mg skin tissue from mouse ear, homogenized the tissue and plated on BSK-II semi-agar plates for cell number counts. No colony appearing on the plates is considered as clearance of the infection."}},
  "data": [
    {"smiles": "CO/N=C(\\C(=O)N[C@@H]1C(=O)N2C(C(=O)O)=C(CSc3nc(=O)c(=O)[nH]n3C)CS[C@H]12)c1csc(N)n1", "note": "[Ceftriaxone]", "values": [
      {"measurement": "Acholeplasmataceae change in percent relative abundance", "setting": "[1]", "result": 0.213, "unit": "%"},
      {"measurement": "Aerococcaceae change in percent relative abundance", "setting": "[1]", "result": 0.000, "unit": "%"},
      {"measurement": "Anaerolineaceae change in percent relative abundance", "setting": "[1]", "result": 0.000, "unit": "%"},
      {"measurement": "Anaeroplasmataceae change in percent relative abundance", "setting": "[1]", "result": 0.000, "unit": "%"},
      {"measurement": "Anaplasmataceae change in percent relative abundance", "setting": "[1]", "result": 0.001, "unit": "%"},
      {"measurement": "Aspergillaceae change in percent relative abundance", "setting": "[1]", "result": 0.000, "unit": "%"},
      {"measurement": "Asteraceae change in percent relative abundance", "setting": "[1]", "result": 0.011, "unit": "%"},
      {"measurement": "Bacillaceae change in percent relative abundance", "setting": "[1]", "result": 0.055, "unit": "%"},
      {"measurement": "Bacillales change in percent relative abundance", "setting": "[1]", "result": "−0.174", "unit": "%"},
      {"measurement": "Bacteroidaceae change in percent relative abundance", "setting": "[1]", "result": "−26.593", "unit": "%"},
      {"measurement": "Bifidobacteriaceae change in percent relative abundance", "setting": "[1]", "result": 0.000, "unit": "%"},
      {"measurement": "Brucellaceae change in percent relative abundance", "setting": "[1]", "result": 0.000, "unit": "%"},
      {"measurement": "Camobacteriaceae change in percent relative abundance", "setting": "[1]", "result": 0.000, "unit": "%"},
      {"measurement": "Chitinophagaceae change in percent relative abundance", "setting": "[1]", "result": 0.000, "unit": "%"},
      {"measurement": "Christensenellaceae change in percent relative abundance", "setting": "[1]", "result": 0.000, "unit": "%"},
      {"measurement": "Clostridiaceae change in percent relative abundance", "setting": "[1]", "result": "−10.423", "unit": "%"},
      {"measurement": "Clostridiales change in percent relative abundance", "setting": "[1]", "result": "−0.174", "unit": "%"},
      {"measurement": "Clostridiales family xi. incertae sedis change in percent relative abundance", "setting": "[1]", "result": "−0.050", "unit": "%"},
      {"measurement": "Clostridiales family xiii. incertae sedis change in percent relative abundance", "setting": "[1]", "result": "−0.015", "unit": "%"},
      {"measurement": "Coriobacteriaceae change in percent relative abundance", "setting": "[1]", "result": "−0.049", "unit": "%"},
      {"measurement": "Corynebacteriaceae change in percent relative abundance", "setting": "[1]", "result": 0.002, "unit": "%"},
      {"measurement": "Cytophagaceae change in percent relative abundance", "setting": "[1]", "result": 0.000, "unit": "%"},
      {"measurement": "Deferribacteraceae change in percent relative abundance", "setting": "[1]", "result": "−1.344", "unit": "%"},
      {"measurement": "Defluviitaleaceae change in percent relative abundance", "setting": "[1]", "result": "−0.002", "unit": "%"},
      {"measurement": "Desulfobacteraceae change in percent relative abundance", "setting": "[1]", "result": 0.000, "unit": "%"},
      {"measurement": "Enterobacteriaceae change in percent relative abundance", "setting": "[1]", "result": "−0.487", "unit": "%"},
      {"measurement": "Enterococcaceae change in percent relative abundance", "setting": "[1]", "result": 77.7, "unit": "%"},
      {"measurement": "Erysipelotrichaceae change in percent relative abundance", "setting": "[1]", "result": "−1.012", "unit": "%"},
      {"measurement": "Eubacteriaceae change in percent relative abundance", "setting": "[1]", "result": "−3.445", "unit": "%"},
      {"measurement": "Fabaceae change in percent relative abundance", "setting": "[1]", "result": 0.003, "unit": "%"},
      {"measurement": "Flavobacteriaceae change in percent relative abundance", "setting": "[1]", "result": 0.000, "unit": "%"},
      {"measurement": "Francisellaceae change in percent relative abundance", "setting": "[1]", "result": 0.000, "unit": "%"},
      {"measurement": "Fusobacteriaceae change in percent relative abundance", "setting": "[1]", "result": 0.001, "unit": "%"},
      {"measurement": "Gammaproteobacteria change in percent relative abundance", "setting": "[1]", "result": "−0.008", "unit": "%"},
      {"measurement": "Gloeobacteraceae change in percent relative abundance", "setting": "[1]", "result": "−0.018", "unit": "%"},
      {"measurement": "Gracilibacteraceae change in percent relative abundance", "setting": "[1]", "result": "−0.087", "unit": "%"},
      {"measurement": "Halomonadaceae change in percent relative abundance", "setting": "[1]", "result": 0.000, "unit": "%"},
      {"measurement": "Hylidae change in percent relative abundance", "setting": "[1]", "result": 0.001, "unit": "%"},
      {"measurement": "Kopriimonadaceae change in percent relative abundance", "setting": "[1]", "result": 0.000, "unit": "%"},
      {"measurement": "Lachnospiraceae change in percent relative abundance", "setting": "[1]", "result": "−11.193", "unit": "%"},
      {"measurement": "Lactobacillaceae change in percent relative abundance", "setting": "[1]", "result": "−1.712", "unit": "%"},
      {"measurement": "Leuconostocaceae change in percent relative abundance", "setting": "[1]", "result": 0.015, "unit": "%"},
      {"measurement": "Methylobacteriaceae change in percent relative abundance", "setting": "[1]", "result": 0.001, "unit": "%"},
      {"measurement": "Microbacteriaceae change in percent relative abundance", "setting": "[1]", "result": 0.001, "unit": "%"},
      {"measurement": "Mucoraceae change in percent relative abundance", "setting": "[1]", "result": 0.000, "unit": "%"},
      {"measurement": "Nostocaceae change in percent relative abundance", "setting": "[1]", "result": 0.002, "unit": "%"},
      {"measurement": "Onagraceae change in percent relative abundance", "setting": "[1]", "result": 0.000, "unit": "%"},
      {"measurement": "Oscillatoriales change in percent relative abundance", "setting": "[1]", "result": 0.090, "unit": "%"},
      {"measurement": "Oscillospiraceae change in percent relative abundance", "setting": "[1]", "result": "−0.009", "unit": "%"},
      {"measurement": "Paenibacillaceae change in percent relative abundance", "setting": "[1]", "result": 0.003, "unit": "%"},
      {"measurement": "Pasteurellaceae change in percent relative abundance", "setting": "[1]", "result": 0.001, "unit": "%"},
      {"measurement": "Pelobacteraceae change in percent relative abundance", "setting": "[1]", "result": 0.000, "unit": "%"},
      {"measurement": "Peptococcaceae change in percent relative abundance", "setting": "[1]", "result": "−0.602", "unit": "%"},
      {"measurement": "Peptoniphilaceae change in percent relative abundance", "setting": "[1]", "result": 0.001, "unit": "%"},
      {"measurement": "Peptostreptococcaceae change in percent relative abundance", "setting": "[1]", "result": "−0.185", "unit": "%"},
      {"measurement": "Physalacriaceae change in percent relative abundance", "setting": "[1]", "result": 0.000, "unit": "%"},
      {"measurement": "Poaceae change in percent relative abundance", "setting": "[1]", "result": 0.820, "unit": "%"},
      {"measurement": "Polyangiaceae change in percent relative abundance", "setting": "[1]", "result": 0.001, "unit": "%"},
      {"measurement": "Porphyromonadaceae change in percent relative abundance", "setting": "[1]", "result": "−24.493", "unit": "%"},
      {"measurement": "Prevotellaceae change in percent relative abundance", "setting": "[1]", "result": "−0.417", "unit": "%"},
      {"measurement": "Pseudomonadaceae change in percent relative abundance", "setting": "[1]", "result": 0.002, "unit": "%"},
      {"measurement": "Rhizobiaceae change in percent relative abundance", "setting": "[1]", "result": 0.001, "unit": "%"},
      {"measurement": "Rhodobacteraceae change in percent relative abundance", "setting": "[1]", "result": 0.000, "unit": "%"},
      {"measurement": "Rikenellaceae change in percent relative abundance", "setting": "[1]", "result": "−6.750", "unit": "%"},
      {"measurement": "Ruminococcaceae change in percent relative abundance", "setting": "[1]", "result": "−2.217", "unit": "%"},
      {"measurement": "Sphingomonadaceae change in percent relative abundance", "setting": "[1]", "result": 0.000, "unit": "%"},
      {"measurement": "Spirochaetaceae change in percent relative abundance", "setting": "[1]", "result": "−0.055", "unit": "%"},
      {"measurement": "Spiroplasmataceae change in percent relative abundance", "setting": "[1]", "result": "−0.051", "unit": "%"},
      {"measurement": "Staphylococcaceae change in percent relative abundance", "setting": "[1]", "result": 0.047, "unit": "%"},
      {"measurement": "Streptococcaceae change in percent relative abundance", "setting": "[1]", "result": 12.672, "unit": "%"},
      {"measurement": "Thermoanaerobacteraceae change in percent relative abundance", "setting": "[1]", "result": "−0.033", "unit": "%"},
      {"measurement": "Veillonellaceae change in percent relative abundance", "setting": "[1]", "result": 0.000, "unit": "%"},
      {"measurement": "Verrucomicrobiaceae change in percent relative abundance", "setting": "[1]", "result": "−0.004", "unit": "%"},
      {"measurement": "Xanthomonadaceae change in percent relative abundance", "setting": "[1]", "result": 0.001, "unit": "%"},
      {"measurement": "all other commensal taxa such as Bacteroidaceae and Lactobacillaceae", "setting": "[1]", "result": "depleted"},
      {"measurement": "mice with Enterococcaceae blooms", "setting": "[1]", "result": "5/5"},
      {"measurement": "Enterococcaceae change in percent relative abundance", "setting": "[1]; listed as Cef", "result": 77.719, "unit": "%"},
      {"measurement": "# of B. burgdorferi cells in 100 mg skin tissue", "setting": "[2]", "result": "<1"}
    ]}
  ]
}
